In US8455398B2, “Amide compounds, preparation methods and uses thereof” (Sinochem Corporation, priority 2008, dated 2013):

How the values were obtained:
[1] = test system: diamond backmoth (Plutella xylostella); assay: Insecticidal activity, spray test, diamond backmoth; type: in vivo; conditions: 600 ppm, mortality after two to three days
Procedure: (§1) Determination of insecticidal and acaricidal activity of selected compounds were carried out by following procedure:
(§2) Compounds were dissolved in mixed solvent (acetone:methanol=1:1), and diluted to required concentration with water containing 0.1% of tween 80.
(§3) The armyworm (Leucania separata), the second stage Juvenile of diamond backmoth (Plutella xylostella), lesser army worm (Spodoptera exiqua), green peach aphids (Myzus persicae) and mite (Tetranychus cinnabarinus) were used in biological test. The test was employed either spraying by airbrush. A test solution (0.5 ml) was sprayed at the pressure of 10 psi (0.7 kg/cm^2). Percent mortality was determined after two to three days.

[2] = test system: lesser army worm (Spodoptera exiqua); assay: Insecticidal activity, spray test, lesser armyworm; type: in vivo; conditions: mortality after two to three days
Procedure: as §1, §2, §3

plant diseases = assay: Fungicidal activity in vivo against plant diseases (overall); conditions: 400 ppm
Procedure: (§4) Determine the fungicidal activities of the compounds of the present invention against plant diseases, carried by following procedure:
(§5) Determination of Fungicidal Activity In Vivo:
(§6) Compounds were dissolved in acetone, and diluted to required concentration with water containing 0.1% of tween 80. Plants were sprayed by a sprayer. After 24 hours, plants were innoculated and then transferred into a dew chamber for infection. After the infection period normally one week), the plants were scored for disease control.

cucumber anthracnose = assay: Fungicidal activity in vivo, cucumber anthracnose; conditions: plants sprayed, inoculated after 24 hours
Procedure: as §4, §5, §6

| Compound | control of diamond backmoth [1] [%] | control of lesser armyworm ([2]; 600 ppm) [%] | further results |
| --- | --- | --- | --- |
| Cc1cc(Cl)cc(C(=O)NCCCNc2ncc(C#N)cc2Cl)c1NC(=O)c1cc(Br)nn1-c1ncccc1Cl [Table 182-199] | 100 | 100 | – |
| CNC(=O)c1cc(Cl)cc(C)c1NC(=O)c1cc(Br)nn1-c1ncccc1Cl [chlorantraniliprole] | – | – | fungicidal activity (plant diseases): no fungicidal activity |
| Cc1cc(Cl)cc(C(=O)NCCNc2ncc(C(F)(F)F)cc2Cl)c1NC(=O)c1cc(Br)nn1-c1ncccc1Cl [Table 181-83] | 100 | 100 | control of cucumber anthracnose (cucumber anthracnose; 50 ppm): 100%; control of cucumber anthracnose (cucumber anthracnose; 400 ppm): 100%; control of lesser armyworm ([2]; 0.1 ppm): more than 60%; control of lesser armyworm ([2]; 1 ppm): 100%; control of lesser armyworm ([2]; 10 ppm): 100% |
| Cc1cc(Cl)cc(C(=O)NCCCNc2ncc(Cl)cc2Cl)c1NC(=O)c1cc(Br)nn1-c1ncccc1Cl [Table 211-199] | 100 | 100 | control of lesser armyworm ([2]; 10 ppm): 100% |
| Cc1cc(Cl)cc(C(=O)N2CCN(c3ncccc3Cl)CC2)c1NC(=O)c1cc(Br)nn1-c1ncccc1Cl [Table 179-303] | 100 | 100 | – |
| Cc1cc(Cl)cc(C(=O)NC(C)CNc2ncccc2Cl)c1NC(=O)c1cc(Br)nn1-c1ncccc1Cl (centres unmarked) [Table 179-304] | 100 | 100 | control of cucumber anthracnose (cucumber anthracnose; 50 ppm): 100%; control of cucumber anthracnose (cucumber anthracnose; 400 ppm): 100%; control of lesser armyworm ([2]; 1 ppm): 100%; control of lesser armyworm ([2]; 10 ppm): 100% |
| Cc1cc(Cl)cc(C(=O)NCCCNc2ncccc2Cl)c1NC(=O)c1cc(Br)nn1-c1ncccc1Cl [Table 179-199] | 100 | 100 | – |
| Cc1cc(Cl)cc(C(=O)NCCNc2ncc(Cl)cc2Cl)c1NC(=O)c1cc(Br)nn1-c1ncccc1Cl [Table 211-83] | 100 | 100 | control of cucumber anthracnose (cucumber anthracnose; 400 ppm): 100% |
| Cc1cc(C(=O)NCCNc2ncc(C#N)cc2Cl)ccc1NC(=O)c1cc(Br)nn1-c1ncccc1Cl [83 in Table 96] | – | – | control of cucumber anthracnose (cucumber anthracnose; 400 ppm): 100% |
| Cc1cc(Cl)cc(C(=O)NC(C)CNc2ncc(C(F)(F)F)cc2Cl)c1NC(=O)c1cc(Br)nn1-c1ncccc1Cl (centres unmarked) [Table 181-304] | 100 | 100 | – |
| Cc1cc(Cl)cc(C(=O)NCCNc2ccc(C(F)(F)F)cc2Cl)c1NC(=O)c1cc(Br)nn1-c1ncccc1Cl [Table 173-83] | 100 | 100 | – |
| Cc1cc(Cl)cc(C(=O)NCCCNc2ncc(C(F)(F)F)cc2Cl)c1NC(=O)c1cc(Br)nn1-c1ncccc1Cl [Table 181-199] | 100 | 100 | control of lesser armyworm ([2]; 1 ppm): 100%; control of lesser armyworm ([2]; 10 ppm): 100% |
| Cc1cc(Cl)cc(C(=O)NCCNc2ncccc2Cl)c1NC(=O)c1cc(Br)nn1-c1ncccc1Cl [Table 179-83] | 100 | 100 | – |
| Cc1cc(Cl)cc(C(=O)NCCNc2ncc(C#N)cc2Cl)c1NC(=O)c1cc(Br)nn1-c1ncccc1Cl [Table 182-83] | 100 | 100 | – |
| Cc1cc(Cl)cc(C(=O)N2CCN(c3ncc(C(F)(F)F)cc3Cl)CC2)c1NC(=O)c1cc(Br)nn1-c1ncccc1Cl [Table 181-303] | 100 | 100 | – |
